The values that follow come from patent US9604987B2, “Synthesis of autophagy inducing compound and the uses thereof” (Hong Kong Baptist University, priority 2012, dated 2017).

In one assay the test system is N2a cells. Briefly: Tandem fluorescent mRFP-GFP-LC3 (Tf-LC3) autophagosome maturation in N2a cells. In kind it is cell-based, mouse. The conditions noted are these: 25 μM, 24 hours. The source says:
Therefore, red-only puncta indicates the normal maturation of the autolysosomes. In contrast, co-localization of GFP and RFP puncta indicates impaired fusion between autophagosomes and lysosomes or disruption of lysosome function. Here, this system is utilized and establishes a pattern of GFP and mRFP fluorescence changes in N2a cells after Cory B treatment. Cells are fixed in 4% paraformaldehyde and analyzed under a confocal microscope. […] However, the number of GFP puncta is much lower as compared to mRFP puncta, indicating efficient autophagosome-lysosome maturation and degradation. In cells treated with CQ, there is similar accumulation of GFP and mRFP puncta due to lysosome inhibition. In cells treated with both CQ and Cory B, the number of GFP and mRFP puncta are even more than in the CQ-alone group, but GFP and mRFP puncta numbers are very similar (FIG. 2E, F). The observations further confirm that enhancement of GFP- and RFP-LC3-II puncta expression by Cory B are achieved via autophagy induction flux in neuronal cells rather than inhibiting lysosomal degradation of LC3-II. Results were presented as means±SEM of one representative experiment from three independent repeats (**p<0.01 compare the difference between GFP and RFP puncta in each group, two-way ANOVA for multiple comparison and Bonferroni test as post hoc test).

The next assay has as its system N2a Swedish APP cells. Briefly: APP reduction in N2a Swedish APP cells (western blot). In kind it is cell-based, mouse. The conditions noted are these: different concentrations, with or without CQ and 3MA. As to the method: N2a Swedish APP cells are incubated with different concentration of Cory and Cory B in the presence or absence of CQ and 3MA. […] Tg2567 APP mice, 3 months old JNPL P301 Tau mice and WT mice intraperitoneally are administrated with 20 mg/kg/d CoryB.

Structures are written as SMILES.

As for `CC[C@@H]1CN2CC[C@]3(C(=O)Nc4ccccc43)C2C[C@@H]1C(=COC)C(=O)OC` (stereo partly drawn) [Cory B, Corynoxine B], in the assay with N2a cells, the “GFP and mRFP puncta formation (Tf-LC3)” value is “induces massive GFP and mRFP puncta formation”; the “number of GFP puncta compared to mRFP puncta” value is reported as “much lower”. The “full length and CTF APP” value in the assay with N2a Swedish APP cells is “dose-dependently reduce both full length and CTF APP”.
